Assays:
[1] = test system: H460 lung cancer cells; assay: Dose-dependent inhibition of proliferation (Alamar Blue), H460; type: cell-based, human; settings: normalized to mock-transfected cells (0 pM = 100%)
Description: Lipid-based reverse transfections were carried out in triplicate according to a published protocol (Ovcharenko et al., 2005) and the following parameters: Cells (5,000-12,000 per 96 well), 0.1-0.2 μl Lipofectamine™ 2000 (cat. no. 11668-019, Invitrogen Corp., Carlsbad, Calif., USA) in 20 μl OptiMEM (Invitrogen), 30 nM final concentration of miRNA in 100 μl. Electroporation of H226 cells was carried out using the BioRad Gene Pulser Xcell™ instrument (BioRad Laboratories Inc., Hercules, Calif., USA) with the following settings: 5×10^6 cells with 5 μg miRNA in 200 μl OptiMEM (1.6 μM miRNA), square wave pulse at 250 V for 5 ms. Electroporated H226 cells were seeded at 7,000 cells per 96-well in a total volume of 100 μl. All cells except for Calu-3 cells were harvested 72 hours post transfection or electroporation for assessment of cellular proliferation. Calu-3 cells were harvested 10 days post transfection. Proliferation assays were performed using Alamar Blue (Invitrogen) following the manufacturer's instructions. As a control for inhibition of cellular proliferation, siRNA against the motor protein kinesin 11, also known as Eg5, was used. Eg5 is essential for cellular survival of most eukaryotic cells and a lack thereof leads to reduced cell proliferation and cell death (Weil et al., 2002). siEg5 was used in lipid-based transfection following the same experimental parameters that apply to miRNA. The inventors also used a DNA topoisomerase II inhibitor, etoposide, at a final concentration of 10 μM and 50 μM as an internal standard for the potency of miRNAs. Etoposide is an FDA-approved DNA topoisomerase II inhibitor in the treatment of lung cancer. […] Percent (%) proliferation values from the Alamar Blue assay were normalized to values from cells treated with negative control miRNA. Percent proliferation of hsa-miR-126 treated cells relative to cells treated with negative control miRNA (100%) is shown in Table 6 and in FIG. 1.
The inventors determined sensitivity and specificity of hsa-miR-126 by administering hsa-miR-126 or negative control miRNA at increasing concentrations, ranging from 0 pM to 3,000 pM (Table 7, FIG. 2). Delivery of miRNA and assessment of cellular proliferation of A549 and H460 cells were done as described above. Proliferation values from the Alamar Blue assay were normalized to values obtained from mock-transfected cells (0 pM=100% proliferation). Increasing amounts of negative control miRNA (NC) had no effect on cellular proliferation of A549 or H460 cells (Table 7 and FIG. 2). In contrast, the growth-inhibitory phenotype of hsa-miR-126 is dose-dependent and correlates with increasing amounts of hsa-miR-126 (Table 7 and FIG. 2). Hsa-miR-126 induces a specific therapeutic response at concentrations as low as 300 pM.

[2] = test system: PPC-1 prostate cancer cells; assay: Long-term growth curve with repeated electroporation, PPC-1; type: cell-based, human
Description: To evaluate the therapeutic activity of hsa-miR-126 over an extended period of time, we conducted growth curve experiments in the presence of miRNA for up to 21 days. Since in vitro transfections of naked interfering RNAs, such as synthetic miRNA, are transient by nature and compromised by the dilution of the oligonucleotide during ongoing cell divisions, we administered miRNA at multiple time points (Bartlett and Davis, 2006; Bartlett and Davis, 2007). To accommodate miRNA delivery into a large quantity of cells, we employed the electroporation method to delivery hsa-miR-126 or negative control miRNA into PPC-1, PC3 and Du145 human prostate cancer cells. Briefly, 1×10^6 PPC-1 or PC3 cells, and 0.5×10^6 Du145 cells were electroporated with 1.6 μM hsa-miR-126 or negative control using the BioRad Gene Pulser Xcell™ instrument (BioRad Laboratories Inc., Hercules, Calif., USA), seeded and propagated in regular growth medium. Experiments with PC3 and Du145 cells were carried out in triplicates. When the control cells reached confluence (days 4 and 11 for PPC-1; days 7 and 14 for PC3 and Du145), cells were harvested, counted and electroporated again with the respective miRNAs. […] The population doubling was calculated from these electroporation events using the formula PD=ln(Nf/N0)/ln2, and cell counts were extrapolated and plotted on a linear scale (FIGS. 10-12). […]

[3] = test system: established H460 lung tumors; assay: Established H460 lung tumors, intratumoral injections; type: in vivo, NOD/SCID mice; settings: H460, 6.25 μg intratumoral with siPORT amine on days 11, 14, 17
Description: Delivery of hsa-miR-126 into human lung cancer cells prior to implantation into the animal inhibited the formation of lung tumor xenografts. […] To explore this possibility, each 3×10^6 human H460 non-small lung cancer cells were mixed with BD Matrigel™, (BD Biosciences; San Jose, Calif., USA; cat. no. 356237) in a 1:1 ratio and subcutaneously injected into the lower back of 23 NOD/SCID mice (Charles River Laboratories, Inc.; Wilmington, Mass., USA). Once animals developed palpable tumors (day 11 post xenograft implantation), a group of six animals received intratumoral injections of each 6.25 μg hsa-miR-126 (Dharmacon, Inc., Lafayette, Colo., USA) formulated with the lipid-based siPORT™ amine delivery agent (Ambion, Austin, Tex.; cat. no. AM4502) on days 11, 14 and 17. A control group of six animals received intratumoral injections of each 6.25 μg negative control miRNA (NC; Dharmacon, Lafayette, Colo.), following the same injection schedule that was used for hsa-miR-126. Given an average mouse weight of 20 g, this dose equals 0.3125 mg/kg. […] Caliper measurements were taken every 1-2 days, and tumor volumes were calculated using the formula, Volume=length×width×width/2, in which the length is greater than the width.

## hsa-miR-126 (UCGUACCGUGAGUAAUAAUGC; synthetic pre-miR form, further chemistry not given here) [Synthetic hsa-miR-126 (Pre-miR™-hsa-miR-126, Ambion cat. no. AM17100)]
[1]; H460 cells, 3 pM miRNA
  % proliferation: 105.60%
[1]; H460 cells, 30 pM miRNA
  % proliferation: 108.98%
[1]; H460 cells, 300 pM miRNA
  % proliferation: 86.46%
[1]; H460 cells, 3,000 pM miRNA
  % proliferation: 33.91%
[2]; PPC-1, day 18, 1.6 μM repeated electroporation, relative to control cells (100%)
  inhibition of cell growth: 91.3%
[2]; PPC-1, day 18, relative to control cells (100%)
  remaining cells: 8.7%
[3]
  growth of established tumors: robustly inhibited growth of established H460 lung tumors

Reference: patent publication US20090131354A1, “miR-126 REGULATED GENES AND PATHWAYS AS TARGETS FOR THERAPEUTIC INTERVENTION” (priority 2007, published 2009)
